In article PMC9412362, “Design, Synthesis, and Characterization of Novel Coordination Compounds of Benzimidazole Derivatives with Cadmium” (Pharmaceutics, 2022):
Values after ≈ are worked out from the molar mass of the structure shown. Read-outs that look alike come from different tables or passages of the source.

Columns and labels:
P. aeruginosa ATCC 9027 = test: MIC, micro-dilution broth method; format: cell-based, Pseudomonas aeruginosa; settings: for MIC, P. aeruginosa ATCC 9027: Gram-negative bacteria
Protocol: (§1) Samples of complexes (about 20 mg) were digested in a concentrated mixture of 36% HCl (1 mL) and 65% HNO3 (6 mL). The contents of Cd (II) in the solid complexes were determined with an F-AAS spectrometer (Analytik Jena, contraAA 300, Jena, Germany) with a continuous source of light and using an air/acetylene flame (Analytik Jena, contraAA 300). Absorbances were measured at the analytical spectral lines at 228.8 nm for Cd (II). The limit of quantification was 0.004 mg/L for Cd (II). The solid samples were decomposed using an Anton Paar Multiwave 3000 (Graz, Austria) closed-system instrument. Mineralization was carried out for 45 min at 240 °C under a pressure of 60 bar. The contents of carbon, hydrogen, and nitrogen were determined with an instrument from Vario Micro Company Elementar Analysensysteme GmbH (Langenselbold, Germany). FTIR spectra were recorded with an IR Tracer-100 Schimadzu Spectrometer (4000–600 cm^−1 with an accuracy of recording of 1 cm^−1, Kyoto, Japan) using KBr pellets. The thermal analyses were carried out with a Netzsch STA 449 F1 Jupiter thermoanalyzer (Netzsch-Geratebau GmbH, Selb, Germany) coupled with a Netzsch Aeolos Quadro QMS 403 mass spectrometer (Netzsch-Geratebau GmbH, Selb, Germany). The samples were heated up to 1000 °C in corundum crucibles with a heating rate of 10 °C/min in an atmosphere of synthetic air (20% O2, 80% N2). The cytotoxic effects of the compounds were evaluated using glioblastoma (T98G), neuroblastoma (SK-N-AS), and lung adenocarcinoma (A549) cell lines and normal human skin fibroblasts (CCD-1059Sk). T98G and SK-N-AS cells were cultured in high-glucose DMEM and A549 cells were cultured in DMEM/F12, while CCD-1059Sk cells were cultured in MEM. All media were supplemented with 10% (FBS), 100 U/mL of penicillin, and […] of streptomycin (PenStrep). Cells were incubated at 37 °C in a humidified atmosphere of 5% CO2. Stock solutions were prepared by dissolving the compounds in sterile dimethyl sulfoxide (DMSO) to obtain a concentration of 50 mg/mL. The cells were seeded into sterile 96-well plates (Nunc) at a density of 1 × 10^5 cells/mL. After 24 h of incubation, the medium was removed from each well, and then the cells were incubated for the next 24 h with different concentrations of the tested compounds (1–100 µg/mL) in their respective media containing 2% FBS. The cytotoxicity of the compounds was evaluated using an MTT assay, which was based on the conversion of 3-(4,5-dimethylthiazol-2-yl)-2,5-diphenyltetrazolium bromide (MTT) into dark-blue formazan crystals. Briefly, after 24 h of incubation of the cells with varying concentrations of the tested compounds, all culture media were removed from the plates. The cells were washed with PBS, and then 100 µL of medium containing 10% MTT solution (5 mg/mL) was added to each well. After 3 h of incubation, 100 µL (per well) of 10% SDS buffer solution was added to solubilize the formazan crystals. After overnight incubation, the absorbance was measured at 570 nm using a microplate reader (Epoch, BioTek Instruments). Experiments were repeated twice, and the measurements in each experiment were run in triplicate. The viability of the investigated cells was expressed as the percentage of the viability of the untreated cells, and the results were transformed into IC50 values (expressed as mean ± SD). The complexes were screened for antibacterial and antifungal activity by using the micro-dilution broth method with Mueller–Hinton broth for the growth of bacteria or Mueller–Hinton broth with 2% glucose for the growth of fungi. […]

[1] = system: C. parapsilosis ATCC 22019; test: MIC, micro-dilution broth method; format: cell-based, Candida parapsilosis; settings: Yeasts, micro-dilution broth with 2% glucose
Protocol: as §1

CCD-1059Sk cells = test: MTT cytotoxicity assay, normal human skin fibroblasts CCD-1059Sk; format: cell-based; settings: normal human fibroblasts CCD-1059Sk, MTT assay after 24 h of incubation; read-out: IC50 ± SD, CCD-1059-Sk
Protocol: as §1

A549 cells = test: MTT cytotoxicity assay, lung adenocarcinoma A549; format: cell-based, human; settings: lung carcinoma A549, MTT assay after 24 h of incubation, read-out: IC50 ± SD, A549
Protocol: as §1

P. mirabilis ATCC 12453 = test: MIC, micro-dilution broth method; format: cell-based, Proteus mirabilis; settings: for MIC, P. mirabilis ATCC 12453: Gram-negative bacteria
Protocol: as §1

SK-N-AS cells = test: MTT cytotoxicity assay, neuroblastoma SK-N-AS; format: cell-based, human; settings: MTT assay after 24 h of incubation, read-out: IC50 ± SD, SK-N-AS
Protocol: as §1

M. luteus ATCC 10240 = test: MIC, micro-dilution broth method; format: cell-based, Micrococcus luteus; settings: Gram-positive bacteria, micro-dilution broth
Protocol: as §1

C. glabrata ATCC 2091 = test: MIC, micro-dilution broth method; format: cell-based; settings: for MIC, C. glabrata ATCC 2091: Yeasts, micro-dilution broth with 2% glucose
Protocol: as §1

E. faecalis ATCC 29212 = test: MIC, micro-dilution broth method; format: cell-based, Enterococcus faecalis; settings: Gram-positive bacteria, micro-dilution broth
Protocol: as §1

C. albicans ATCC 102231 = test: MIC, micro-dilution broth method; format: cell-based, Candida albicans; settings: for MIC, C. albicans ATCC 102231: Yeasts, micro-dilution broth with 2% glucose
Protocol: as §1

E. coli ATCC 25922 = test: MIC, micro-dilution broth method; format: cell-based, Escherichia coli; settings: for MIC, E. coli ATCC 25922: Gram-negative bacteria
Protocol: as §1

[2] = system: S. epidermidis ATCC 12228; test: MIC, micro-dilution broth method; format: cell-based, Staphylococcus epidermidis; settings: Gram-positive bacteria, micro-dilution broth
Protocol: as §1

B. cereus ATCC 10876 = test: MIC, micro-dilution broth method; format: cell-based, Bacillus cereus; settings: Gram-positive bacteria, micro-dilution broth
Protocol: as §1

T98G cells = test: MTT cytotoxicity assay, glioblastoma T98G; format: cell-based, human; settings: MTT assay after 24 h of incubation, read-out: IC50 ± SD, T98G
Protocol: as §1

S. aureus ATCC 25923 = test: MIC, micro-dilution broth method; format: cell-based, Staphylococcus aureus; settings: Gram-positive bacteria, micro-dilution broth
Protocol: as §1

K. pneumoniae ATCC 13883 = test: MIC, micro-dilution broth method; format: cell-based, Klebsiella pneumoniae; settings: for MIC, K. pneumoniae ATCC 13883: Gram-negative bacteria
Protocol: as §1

B. subtilis ATCC 6633 = test: MIC, micro-dilution broth method; format: cell-based, Bacillus subtilis; settings: Gram-positive bacteria, micro-dilution broth
Protocol: as §1

[3] = system: S. typhimurium ATCC 14028; test: MIC, micro-dilution broth method; format: cell-based, Salmonella Typhimurium; settings: Gram-negative bacteria
Protocol: as §1

SMILES	IC50 (CCD-1059Sk cells)	MIC, P. aeruginosa ATCC 9027 (P. aeruginosa ATCC 9027)	MIC, C. parapsilosis ATCC 22019 [1]	IC50 (A549 cells)	MIC, P. mirabilis ATCC 12453 (P. mirabilis ATCC 12453)	IC50 (SK-N-AS cells)	MIC, M. luteus ATCC 10240 (M. luteus ATCC 10240)	MIC, C. glabrata ATCC 2091 (C. glabrata ATCC 2091)	MIC, E. faecalis ATCC 29212 (E. faecalis ATCC 29212)	MIC, C. albicans ATCC 102231 (C. albicans ATCC 102231)	MIC, E. coli ATCC 25922 (E. coli ATCC 25922)	MIC, S. epidermidis ATCC 12228 [2]	MIC, B. cereus ATCC 10876 (B. cereus ATCC 10876)	IC50 (T98G cells)	MIC, S. aureus ATCC 25923 (S. aureus ATCC 25923)	MIC, K. pneumoniae ATCC 13883 (K. pneumoniae ATCC 13883)	MIC, B. subtilis ATCC 6633 (B. subtilis ATCC 6633)	MIC, S. typhimurium ATCC 14028 [3]	further results
Brc1cnc2[nH]c(-c3cccnc3)nc2c1 [L4]	> 362 µM	–	–	–	–	–	–	–	–	–	–	–	–	–	–	–	–	–	MIC (P. aeruginosa ATCC 9027; Pseudomonas aeruginosa, ATCC9027, Gram-negative bacteria): > 1000 µg/mL; MIC ([1]; Lodderomyces parapsilosis, ATCC22019): 1000 µg/mL (≈ 3.63 mM); IC50 (A549 cells; Homo sapiens): > 362 µM; MIC (P. mirabilis ATCC 12453; Proteus mirabilis, ATCC12453, Gram-negative bacteria): > 1000 µg/mL; IC50 (SK-N-AS cells; Homo sapiens, SK-N-AS, 24 h): > 362 µM; MIC (M. luteus ATCC 10240; Micrococcus luteus, ATCC10240, read-out: MIC, M. luteus ATCC 10240): > 1000 µg/mL; MIC (C. glabrata ATCC 2091; Nakaseomyces glabratus, ATCC2091, read-out: MIC, C. glabrata ATCC 2091): > 1000 µg/mL; MIC (E. faecalis ATCC 29212; Enterococcus faecalis, ATCC29212, read-out: MIC, E. faecalis ATCC 29212): 1000 µg/mL (≈ 3.63 mM); MIC (C. albicans ATCC 102231; Candida albicans, ATCC102231, read-out: MIC, C. albicans ATCC 102231): 500 µg/mL (≈ 1.82 mM); MIC (E. coli ATCC 25922; Escherichia coli, ATCC25922, Gram-negative bacteria): > 1000 µg/mL; MIC ([2]; Staphylococcus epidermidis, ATCC12228, read-out: MIC, S. epidermidis ATCC 12228): 1000 µg/mL (≈ 3.63 mM); MIC (B. cereus ATCC 10876; Bacillus cereus, ATCC10876, read-out: MIC, B. cereus ATCC 10876): 1000 µg/mL (≈ 3.63 mM); IC50 (T98G cells; Homo sapiens): > 362 µM; MIC (S. aureus ATCC 25923; Staphylococcus aureus, ATCC25923, read-out: MIC, S. aureus ATCC 25923): > 1000 µg/mL; MIC (K. pneumoniae ATCC 13883; Klebsiella pneumoniae, ATCC13883, Gram-negative bacteria): > 1000 µg/mL; MIC (B. subtilis ATCC 6633; Bacillus subtilis, ATCC6633, read-out: MIC, B. subtilis ATCC 6633): 1000 µg/mL (≈ 3.63 mM); MIC ([3]; Salmonella enterica): > 1000 µg/mL
O.O.[Cl][Cd][Cl].c1cncc(-c2nc3cccnc3[nH]2)c1 [C3, Cd(L3)Cl2∙2H2O]	40.4 ± 0.41 µM	125 µg/mL	15.6 µg/mL	47.2 ± 2.1 µM	31.3 µg/mL	34.5 ± 0.41 µM	7.8 µg/mL	31.3 µg/mL	>1000 µg/mL	125 µg/mL	125 µg/mL	1000 µg/mL	>1000 µg/mL	55.7 ± 2.5 µM	1000 µg/mL	250 µg/mL	7.8 µg/mL	125 µg/mL	–
Brc1cnc2[nH]c(-c3cccnc3)nc2c1.O.O.[Cl][Cd][Cl] [C4, Cd(L4)Cl2∙2H2O]	27.7 ± 0.9 µM	>1000 µg/mL	7.8 µg/mL	37.3 ± 2.1 µM	1000 µg/mL	25.3 ± 1 µM	7.8 µg/mL	31.3 µg/mL	250 µg/mL	125 µg/mL	500 µg/mL	250 µg/mL	250 µg/mL	42.5 ± 0.96 µM	1000 µg/mL	1000 µg/mL	7.8 µg/mL	1000 µg/mL	–
